This note sets out measurements from PMC11407758, “Integrated stress response (ISR) activation and apoptosis through HRI kinase by PG3 and other p53 pathway-restoring cancer therapeutics” (Oncotarget, 2024).

The subject of experiment [1] is HCT116 (P53−/−). In words: Cell viability assay (CellTiterGlo), HCT116 p53-/-. The format is cell-based, human. To be noted: Homo sapiens, HCT-116; 72 h, CellTiterGlo. How it is done: (§1) Figure 1 PG3 inhibits cell proliferation and growth in a p53-indepent manner. (A–E) Cell viability assay, dose response curves and IC50 value measurements in a panel of cancer cell lines and normal cells. Cells were treated with different concentrations of PG3, PG3-Oc (Oc), obatoclax (Ob), prodigiosin (P) or DMSO for 72 h. Luciferase activity was imaged by the IVIS Imaging System after treatment. Cell viability data were normalized to those of DMSO treatment control in each cell line and data analyses were performed using PRISM4 software. IC50 data are expressed as the mean ±SD (normal; n = 3).
as §1, with “2 p53-dependent inhibition of” for “1 PG3 inhibits”, “is only observed at specific concentrations. (A–J)” for “and growth in a p53-indepent manner. (A–E)”, “ZMC1, CP-313908, APR-246, Ellipticine, Nutalin-3a” for “PG3, PG3-Oc (Oc), obatoclax (Ob), prodigiosin (P)”
(§2) Cells were seeded in 96-well plates (6 × 10^3 cells/well). Cells were treated with different concentrations of compounds or dimethyl sulfoxide (DMSO) as a control for 72 hours. The cell viability was assessed by CellTiterGlo bioluminescent cell viability assay (Promega), following the manufacturer’s protocol. Bioluminescence imaging was measured using the IVIS imager. The percentage of cell viability (mean ± SEM) at each dose was calculated against the respective DMSO control. The IC50 values were determined from the sigmoidal dose-response curves using GraphPad Prism.
In general terms: Cellular ATP, detected with luciferase, serves as a proxy for viable cell number.

The test system of experiment [2] is DR5. Put plainly: Western blot, DR5 induction. Type of experiment: cell-based, human. To be noted: five cell lines, 24 h. In short, it runs like this: (§3)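 Cells treated with compounds for 24 h, then lysed. 15 μg protein separated by SDS-PAGE and immunoblotted. Bands detected by chemiluminescence.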
For orientation: In western blotting, separated proteins are transferred to a membrane and probed.

In experiment [3] the test system is ATF4. In words: Western blot, ATF4 induction. To be noted: five cancer cell lines, 24 h. Type of experiment: cell-based, human. In short, it runs like this:
as §3

The test system of experiment [4] is HT29 (R273H). Put plainly: Cell viability assay (CellTiterGlo), HT29. The format is cell-based, human. To be noted: Homo sapiens, HT-29; 72 h, CellTiterGlo. In outline: (§4)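 Cells (6 × 10^3/well) were exposed to a range of compound concentrations or DMSO for 72 h, and viability was read by CellTiterGlo luminescence on an IVIS imager. Percent viability was calculated against each line's DMSO control, and IC50 was taken from sigmoidal dose-response curves.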

Experiment [5] deals with GCN2, PKR, eIF2α, ATF4, CHOP in HT29 cells. Put plainly: Western blot, ISR kinases / eIF2α / ATF4 / CHOP. The format is cell-based, human. To be noted: HT29, 15 h. How it is done: Figure 7 PG3 induces upregulation of ATF4 through ISR via HRI. (A) HT29 cells were treated with PG3, GSK2606414, TG and ONC201 respectively, or co-treatment with PG3/GSK2606414, PG3/TG, and PG3/ONC201 for 15 h. (B) MEF, MEF^PERK−/− and MEF^GCN2−/− cells were treated with PG3 and ONC201 for 16 hours. (C) HT29 cells were transfected with siControl, siPKR, siHRI and siPKR/siHRI for 24 hours and then treated with PG3 for 16 hours. (D) HCT116 p53^−/− cells were transfected with siControl and siHRI for 24 hours and then treated with PG3 for 16 hours. (E) HCT116 p53^−/− cells were treated with PG3 and ONC201 for indicated times. (F) PANC1-sgCtrl, -sgHRI and -sgPKR cell lines were treated with PG3 and imipridones (ONC201, ONC206 and ONC212) for 16 hours. Western blot was performed using indicated antibodies. (G) Proposed model of PG3-induced cell apoptosis through HRI/ATF4/PUMA axis. Abbreviation: L.E.: Long exposure.
(§5) After treatment, protein lysates were collected for Western blot analysis. A total of 15 μg of protein was used for SDS-PAGE. After primary and secondary antibody incubations, the signal was detected by a chemiluminescence detection kit, imaged by Syngene (Imgen Technologies). Antibodies for NAG-1 (GDF15) and P53 were from Santa Cruz Biotechnology; for caspase 8, cleaved caspase 8, caspase 9, caspase 3, cleavage PARP, eIF2α, p-eIF2α (Ser51), CHOP, ATF4, DR5, and PUMA were from Cell Signaling Technology. Noxa and p21 were from Calbiochem. Ran was from BD Biosciences.
(§6) Supplementary Figure 2: ROS and NO are not responsible for PG3-induced HRI activation. (A, B) cells were pre-treated
(§7) with ZnPP, L-NMMA, SA and NAC for 2 hours respectively, and then ONC201 or PG3 was added to the medium for 24 hour treatment.
(§8) Western blot was performed using indicated antibodies.
(§9) (1 picture or pasted object on this page, not shown here)

Experiment [6] relates to PUMA. In words: Western blot, PUMA induction. Type of experiment: cell-based, human. Particulars: five cell lines, 24 h. In short, it runs like this: as §3
In experiment [7] the test system is ALAS1, UROD. Put plainly: Western blot, heme biosynthesis enzymes. The format is cell-based, human. How it is done: Figure 8 Inhibition of heme biosynthesis leads to upregulation of ATF4. (A) HT29 cells were treated with SA and ONC201 for 20 hours. Western blotting was performed using the indicated antibodies. (B) HT29 cells were transfected with siCtrl, siHRI, siClpX, siALAS1, siClpX/siALAS1 and siClpX/siALAS1/siHRI for 48 hours. (C) HT29 cells were transfected with siCtrl, siLonP1, siClpP for 24 or 48 hours respectively, and then treated with ONC201 for 24 hours. (D) Proposed model of ONC201-induced cell apoptosis through ClpP/ALAS1/HRI/ATF4 axis. (E, F) Silencing of ClpP in HCT116 p53^−/− and MDA-MB-468 cells and then treated with PG3, PG3-Oc and ONC201. Western blot was performed using indicated antibodies.
as §5, §6, §7, §8, §9

Experiment [8] deals with TOV-112D (R175H). In words: Cell viability assay (CellTiterGlo), TOV-112D. The format is cell-based, human. To be noted: for IC50: Homo sapiens, TOV112D, 72 h. The protocol: as §1
as §1, with “2 p53-dependent inhibition of” for “1 PG3 inhibits”, “is only observed at specific concentrations. (A–J)” for “and growth in a p53-indepent manner. (A–E)”, “ZMC1, CP-313908, APR-246, Ellipticine, Nutalin-3a” for “PG3, PG3-Oc (Oc), obatoclax (Ob), prodigiosin (P)”
as §2

Experiment [9] relates to MRC5 (human lung fibroblast cell with wild-type p53). In words: Cell viability assay (CellTiterGlo), MRC5 normal cells. Type of experiment: cell-based. Particulars: Homo sapiens, MRC5, 72 h, read-out: IC50 values, MRC5 (WT). How it is done:
as §1
as §1, with “2 p53-dependent inhibition of” for “1 PG3 inhibits”, “is only observed at specific concentrations. (A–J)” for “and growth in a p53-indepent manner. (A–E)”, “ZMC1, CP-313908, APR-246, Ellipticine, Nutalin-3a” for “PG3, PG3-Oc (Oc), obatoclax (Ob), prodigiosin (P)”
as §2

Experiment [10] deals with p53 protein. Put plainly: Western blot, p53 protein levels. The format is cell-based, human. In outline:
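Cells treated with compounds for 24 h, then lysed; 15 μg protein per lane resolved by SDS-PAGE and immunoblotted. Antibody signal read by chemiluminescence imaging, with short and long exposures shown.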

The test system of experiment [11] is HCT116 (WT). In words: Cell viability assay (CellTiterGlo), HCT116 WT. Particulars: Homo sapiens, HCT-116; 72 h, CellTiterGlo. The format is cell-based, human. The protocol: as §1
as §1, with “2 p53-dependent inhibition of” for “1 PG3 inhibits”, “is only observed at specific concentrations. (A–J)” for “and growth in a p53-indepent manner. (A–E)”, “ZMC1, CP-313908, APR-246, Ellipticine, Nutalin-3a” for “PG3, PG3-Oc (Oc), obatoclax (Ob), prodigiosin (P)”
as §2

For experiment [12], the system named is HCT116 (R175H). Put plainly: Cell viability assay (CellTiterGlo), HCT116 R175H. Type of experiment: cell-based, human. To be noted: Homo sapiens, HCT-116; 72 h, CellTiterGlo. In short, it runs like this: as §4

Where two headings read alike, the source gives them in different places.

For orientation: IC50 means the concentration that gives 50% inhibition. On to `CCc1c(C)[nH]c(/C=C2\N=C(c3ccc[nH]3)C=C2OC)c1C` [PG3], for which the IC50 is 52 nM in experiment [1]; 36 nM in experiment [4]; 126 nM in experiment [8] (CellTiterGlo, read-out: IC50 values, TOV-1120 (R175H) (converted)); 120 nM in experiment [8] (unit inferred, 'within the nanomolar range', read-out: IC50 value, TOV-112D); 2230 nM in experiment [9]; 71 nM in [11]. This compound also displayed an IC50 in experiment [12] of 66 nM. The “upregulation of DR5” value in [2] is “consistently induce upregulation”. Also, in experiment [3], the “upregulation of ATF4” value is recorded as “induce upregulation of ATF4”. Moreover, in experiment [5], the “phosphorylation of GCN2 and PKR” value is listed as “does not increase phosphorylation”. Moreover, the “upregulation of PUMA” value in [6] was “consistently induce upregulation”. Further, in experiment [7] (24 hour treatment), the ALAS1 protein level result is given as “does not lead to the downregulation of ALAS1”. Also, the UROD protein levels entry in [7] (western blot) was “do not have any effects”. The “fold less potent than PG3-Oc” value in experiment [8] (TOV-112D) was found to be 3.3 fold. In experiment [10] (HCT116, 24 h), the “wild-type p53 protein level” value is “do not upregulate expression”. Besides, the “endogenous mutant p53 R273H protein level” value in experiment [10] (HT29, 24 h) is given as “no effects on stability”. Also, in [10] (TOV-112D, 24 h), the “endogenous mutant p53 R175H protein level” value is “no effects on stability”. Besides, the “exogenous mutant p53 R175H protein level” value in experiment [10] (engineered HCT116-R175H cells, 24 h) is given as “stabilize”.
